From patent US20160263258A1, “Radiotracer introduced [18F]fluoromethyl group targeting neuroinflammation for PET imaging and Synthesis of Radiotracer and its biological evaluation Method for Radiotracer” (Bio Imaging Korea Co., Ltd., priority 2013, published 2016)

Experiments:
TSPO = molecular target: T1, TSPO (Rattus norvegicus, UniProt P16257); assay: Selective/specific PET imaging: inhibition image by co-injection with the radiotracer; format: in vivo
T1 construct: from tissue; host or cells: brain of living LPS-injected Sprague-Dawley rats (PET imaging)
Procedure: (§1) To construct a neuroinflammation rat model, male Sprague-Dawley rats with a weight of 200-250 g were used. Each of the rats was anesthetized, and the cranium was exposed and then drilled with a bone drill to form a small hole. Thereafter, 50 μg of LPS (lipopolysaccharide) was injected into the rat body by a Hamilton syringe at a flow rate of […] (AP, 0.8 mm; L, −2.7 mm; and P, −5.0 mm from the bregma). LPS was maintained for 10 minutes to prevent LPS from flowing backward in the Hamilton syringe, and then the small hole of the cranium was filled with wax and the incised scalp was closed.

[1] = test system: LPS-induced brain neuroinflammation rat model; assay: PET imaging in LPS-induced brain neuroinflammation rat model; format: in vivo; settings: for time of uptake (faster uptake): PET time-activity, after injection; for accumulation in LPS-injected inflammatory region versus contralateral region: PET, tail vein injection, 4 days after LPS
Procedure: as §1
At 4 days after LPS injection into five rats (227.98±3.8 g), positron emission tomography (PET) images were acquired. The rats were subjected to PET imaging for 120 minutes after injection of [^11C]PBR28 or the [^18F]fluoromethyl group-introduced radiotracer into the tail vein of the neuroinflammation model. First, a [^11C]PBR28 image was acquired from the neuroinflammation model, and after six-half lives ([…]) when the remaining radioactivity disappeared, an image of the [^18F]fluoromethyl group-introduced radiotracer was acquired.

[2] = Metabolism of radiotracer in brain of neuroinflammation model rats (HPLC); format: in vivo, rat
Procedure: The [^18F]fluoromethyl group-introduced radiotracer (about 37 MBq, 5% ethanol/saline) was injected into the vein of the neuroinflammation model rats through the tail vein. After 30 and 60 minutes, the rats were sacrificed, and brain samples were collected therefrom, after which the metabolism of the fluorine-18-labeled radiotracer was measured by HPLC. As a result, the amount of the [^18F]fluoromethyl group-introduced radiotracer in the rat brain was 97.3% 30 minutes after injection and 96.8% 60 minutes after injection. Other radioactive metabolites, excluding 2-3% fluorine-18, were not observed in HPLC up to 60 minutes after injection. In contrast, according to previous studies, it is known that, in the case of [^11C]PBR28, radioactive metabolites exist in an amount of about 10-15%, thereby giving false images.

[3] = pH 7.4
Procedure: For the measurement of lipophilicity, each of the [^18F]fluoromethyl group-introduced radiotracer and [^11C]PBR28 (about 0.74 MBq) in 5% ethanol/saline was added to and mixed with n-octanol (5 mL) and sodium phosphate buffer (5.0 mL, 0.15 M, pH 7.4), and then lipophilicity was measured four times. The radioactivity of the sample (100 μL) in each sample was measured, and the lipophilicity was calculated as the ratio of counts per minute to sodium phosphate buffer and n-octanol.

[4] = background art; cited from earlier work
[5] = according to previous studies; cited from earlier work

CCOC(=O)c1ncn2c1CN(C)C(=O)c1cc(F)ccc1-2 [Flumazenil]
influence on uptake of the fluorine-18-labeled radiotracer in the inflammatory region (TSPO; 5 mg/kg injected simultaneously with the [18F] radiotracer, CBR ligand): did not influence the uptake

CC(=O)N(Cc1ccccc1OC[18F])c1cnccc1Oc1ccccc1 [N-(2-[^18F]fluoromethoxybenzyl)-N-(4-phenoxypyridin-3-yl)acetamide]
time of uptake (faster uptake) [1]: 4.5 min | accumulation in LPS-injected inflammatory region versus contralateral region [1]: more selectively accumulated in the LPS-injected inflammatory region than the contralateral region | uptake, times higher ([1]; for about 2 hours, p=0.009): at least 3.0 times | amount of radiotracer in the rat brain ([2]; 30 minutes after injection): 97.3% | amount of radiotracer in the rat brain ([2]; 60 minutes after injection): 96.8% | fluorine-18 (radioactive metabolite) in brain ([2]; up to 60 minutes after injection): 2-3% | lipophilicity [3]: 2.85±0.02

CCC(C)N(C)C(=O)c1cc2ccccc2c(-c2ccccc2Cl)n1 (stereo not drawn) [PK11195]
inhibition of radiotracer uptake in the inflammatory region (TSPO; 10 mg/kg injected simultaneously with the [18F] radiotracer): about 66%

COc1ccc(OC)c(CN(C(C)=O)c2cc(F)ccc2Oc2ccccc2)c1 [[^11C]DAA1106]
uptake relative to [11C]-(R)-PK11195 [4]: at least 4 times

CC(=O)N(Cc1ccccc1O[11CH3])c1ccc(Oc2ccccc2)nc1 [[^11C]PBR28, N-acetyl-N-(2-[^11C]methoxybenzyl)-2-phenoxy-5-pyridinamine]
time of uptake (faster uptake) [1]: 20 min | accumulation in LPS-injected inflammatory region versus contralateral region [1]: more selectively accumulated in the LPS-injected inflammatory region than the contralateral region | inflammatory region/contralateral region ratio ([1]; at 90 min): 3.4 times | lipophilicity [3]: 3.01±0.01 | radioactive metabolites, amount [5]: 10-15%
